We go through two molecules from patent publication US4173647A, “4-Spectinomycylamine and salts thereof” (Boehringer Ingelheim GmbH, priority 1977, dated 1979).

Assay [1] deals with Escherichia coli ATCC 9637. Put plainly: series-dilution assay in the microtiter system, bacteriostasis. The class given is cell-based. The following applies: ATCC9637, pH 6.7, read-out: Minimum inhibiting concentration. Here is the method:
(§1) 4-R-Spectinomycylamine of the formula I was tested in comparison with the known antibiotic spectinomycin with regard to its effectiveness against Staphylococcus aureus SG 511, Streptococcus aronson, Escherichia coli ATCC 9637, Pseudomonas aeruginosa, Serratia marcescens ATCC 13 880, Klebsiella pneumoniae ATCC 10 031, Proteus mirabilis and Proteus vulgaris, and with regard to acute toxicity.
(§2) For these tests the method of the series-dilution essay in the microtiter system was used. The substances were tested in a fluid medium with regard to bacteriostasis. The effectiveness of the bacteriostasis was tested at the following concentrations: 80, 40, 20, 10, 5, 2.5, 1.25, 0.6 and 0.3 μgm/ml. A bouillon consisting of 5 gm of peptone, 3 gm of meat extract, filled up to a volume of 1000 ml with distilled water served as nutriant; pH-value 6.7. The age of the primary cultures was 24 hours. The adjustment of the microorganism suspension was carried out with a photometer (according to Eppendorf) (diameter of the test tube 14 mm, filter 546 nm) by comparison with the turbidity of a barium sulfate comparison suspension produced by a suspension of barium sulfate which was prepared by addition of 3.0 ml of 1% barium chloride solution on 97 ml of 1% sulfuric acid. After the adjustment streptococcus aronson was diluted 1:150 and the remaining test microorganisms were further diluted with sodium chloride solution in the proportion of 1:1500.
(§3) 16 mgm of the test substance was weighed in 10 ml measuring flasks and filled up with the solvent until the mark was reached. The further dilution series was prepared with distilled water or with the respective solvent.
(§4) 0.2 ml of nutrient medium, 0.01 ml of the corresponding test substance dilution and 1 drop of the microorganism suspension were placed into the cavities of the microtiter plates and incubated for 18 to 20 hours at 37° C. A solvent control batch was always treated in like manner at the same time.
(§5) The reading was effected macroscopically, whereby the respective threshold concentration (=lowest still bacteriostatically effective concentration) was determined.

In assay [2] the test system is Klebsiella pneumoniae ATCC 10 031. Described as above. It is filed as cell-based. The following applies: ATCC10, 18 to 20 hours at 37° C., pH 6.7, lowest still bacteriostatically effective concentration, read-out: Minimum inhibiting concentration. Here is the method:
as §1, §2, §3, §4, §5

Assay [3] concerns Proteus mirabilis. The description is as above. It is filed as cell-based. Conditions: 18 to 20 hours at 37° C., pH 6.7, lowest still bacteriostatically effective concentration, read-out: Minimum inhibiting concentration. How it is done:
as §1, §2, §3, §4, §5

The subject of assay [4] is Proteus vulgaris. The assay is described as above. The class given is cell-based. Conditions: 18 to 20 hours at 37° C., pH 6.7, lowest still bacteriostatically effective concentration, read-out: Minimum inhibiting concentration. Here is the method: as §1, §2, §3, §4, §5
For assay [5], the system named is Pseudomonas aeruginosa. Described as above. The class given is cell-based. Conditions: pH 6.7, read-out: Minimum inhibiting concentration. Here is the method: as §1, §2, §3, §4, §5
For assay [6], the system named is Serratia marcescens ATCC 13 880. Described as above. The class given is cell-based. The following applies: ATCC13, pH 6.7, read-out: Minimum inhibiting concentration. How it is done:
as §1, §2, §3, §4, §5

The test system of assay [7] is Staphylococcus aureus SG 511. Described as above. The class given is cell-based. The following applies: SG511, 18 to 20 hours at 37° C., pH 6.7, lowest still bacteriostatically effective concentration, read-out: Minimum inhibiting concentration. How it is done: as §1, §2, §3, §4, §5
Assay [8] has as its system Streptococcus aronson. Described as above. The class given is cell-based. The following applies: 18 to 20 hours at 37° C., pH 6.7, lowest still bacteriostatically effective concentration, read-out: Minimum inhibiting concentration. Here is the method: as §1, §2, §3, §4, §5
A short description of assay [9]: antimicrobial activity (general statement, in vitro and in warm-blooded animals such as mice).

≈ marks a conversion by molar mass, not a printed value.

On to `CNC1C(O)C(NC)C2OC3(O)C(N)CC(C)OC3OC2C1O` (centres unmarked) [4-R-Spectinomycylamine], for which the MIC in [1] stood at 20 µg/mL (≈ 60 µM); in assay [2] it was 10 µg/mL (≈ 30 µM); in assay [3], 10 µg/mL (≈ 30 µM); in assay [4], 5 µg/mL (≈ 15 µM); in assay [5], 40 µg/mL (≈ 120 µM); in assay [6], 10 µg/mL (≈ 30 µM). For the same molecule, the MIC in assay [7] and in [8] was 5 µg/mL (≈ 15 µM) each time. Also, the “antimicrobial properties (in words)” value in [9] was “especially pronounced”.

As to `CN[C@@H]1[C@H](O)[C@H](NC)[C@H]2O[C@@]3(O)C(=O)C[C@@H](C)O[C@H]3O[C@@H]2[C@H]1O` [Spectinomycin, spectinomycin, reference compound], the MIC is 40 µg/mL (≈ 120 µM) in assay [1]; 20 µg/mL (≈ 60.2 µM) in [2]; 10 µg/mL (≈ 30.1 µM) in assay [3]; 10 µg/mL (≈ 30.1 µM) in assay [4]; 160 µg/mL (≈ 481 µM) in [5]; 20 µg/mL (≈ 60.2 µM) in assay [6]. Further, the MIC is 20 µg/mL (≈ 60.2 µM) in [7] and 10 µg/mL (≈ 30.1 µM) in [8].
